Here are results for 6 compounds from paper PMC9196953 (Drug development research, 1999).

The target of one assay is T1, human A2B receptors (Homo sapiens, UniProt P29275).
T1 construct: expressed in transfected cells; host or cells: HEK-293
T1 sequence (P29275 1-332): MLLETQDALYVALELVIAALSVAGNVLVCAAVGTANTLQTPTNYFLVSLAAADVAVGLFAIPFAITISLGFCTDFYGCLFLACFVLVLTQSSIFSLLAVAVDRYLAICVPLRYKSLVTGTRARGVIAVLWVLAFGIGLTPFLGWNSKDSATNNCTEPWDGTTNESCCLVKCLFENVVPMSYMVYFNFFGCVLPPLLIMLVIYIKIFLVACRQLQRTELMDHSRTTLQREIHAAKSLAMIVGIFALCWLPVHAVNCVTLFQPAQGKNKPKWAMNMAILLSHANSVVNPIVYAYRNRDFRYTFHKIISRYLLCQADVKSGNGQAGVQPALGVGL
Briefly: Binding at human A2B receptors expressed in HEK-293 cells vs [125I]-ABOPX. As to conditions: read-out: Ki hA2B (converted). On the procedure: The human A2B receptor cDNA was subcloned into the expression plasmid pDoubleTrouble [[Robeva et al., 1996a]]. The plasmid was amplified in competent JM109 cells and plasmid DNA isolated using Wizard Megaprep columns (Promega Corp., Madison, WI).
Transfected HEK cells were grown under 5% CO2/[…] humidified atmosphere at a temperature of 37°C. Colonies were selected by growth of cells in 0.6 mg/mL G418. Transfected cells were maintained in DMEM supplemented with Hams F12 nutrient mixture (1/1), 10% newborn calf serum, 2 mM glutamine, and containing 50 IU/mL penicillin, 50 μg/mL streptomycin, and 0.2 mg/mL Geneticin (G418, Boehringer Mannheim, Indianapolis, IN). Cells were cultured in 10 cm diameter round plates and subcultured when grown confluent (approximately after 72 h).
Confluent monolayers of HEK-A2B cells were washed with PBS followed by ice-cold Buffer A (10 mM HEPES, 10 mM EDTA, pH 7.4) with protease inhibitors ([…] benzamidine, […], and […] of each aprotinin, pepstatin, and leupeptin). The cells were homogenized in a Polytron (Brinkmann) for 20 sec, centrifuged at 30,000g, and the pellets washed twice with buffer HE (10 mM HEPES, 1 mM EDTA, pH 7.4 with protease inhibitors). The final pellet was resuspended in buffer HE, supplemented with 10% sucrose and frozen in aliquots at −80°C. For binding assays, membranes were thawed and diluted 5–10-fold with HE to a final protein concentration of approximately 1 mg/mL. To determine protein concentrations, membranes, and bovine serum albumin standards were dissolved in 0.2% NaOH/0.01% SDS and protein determined using fluorescamine fluorescence [[Stowell et al., 1978]]. […] To prepare [^125I-]ABOPX, […] of 1 mM ABOPX in methanol/1 M NaOH (20:1) was added to […] of 100 mM phosphate buffer, pH 7.3. One or 2 mCi of Na^125I was added, followed by […] of 1 mg/mL chloramine-T in water. After incubating for 20 min at room temperature, 50 mL of 10 mg/mL Na-metabisulfite in water was added the quench the reaction. The reaction products were applied to a C18 HPLC column using 4 mM phosphate, pH 6.0/methanol. After 5 min in 35% methanol, the methanol concentration was ramped to 100% over 15 min. Unreacted ABOPX eluted in 11–12 min; [^125I-]ABOPX eluted at 18–19 min in a yield of 50–60% of the initial ^125I. In equilibrium binding assays the ratio of [^127I/^125I-]ABOPX was 10–20/1. […] The incubation time was 3 h at 21°C. […] Competition experiments were carried out using 0.6 nM ^125I-ABOPX. Membranes were filtered on Whatman GF/C filters using a Brandell cell harvester (Gaithersburg, MD) and washed three times over 15–20 sec with ice-cold buffer (10 mM Tris, 1 mM MgCl2, pH 7.4). Bmax and KD values were calculated by Marquardt’s nonlinear least squares interpolation for single site binding models [[Marquardt, 1963]]. Ki values for different compounds were derived from IC50 values as described previously [[Linden, 1982]]. Data from replicate experiments are tabulated as means ± SEM.
(§1) At A2B receptors, two radioligand binding assays (Table 1) were used. Ki values of xanthine derivatives were determined in displacement of binding of the non-selective radioligands […], 8 (4-(2-[7-amino-2-{furyl}{1,2,4}triazolo{2,3-a}{1,3,5}tr nzyl)-8-phenyloxyacetate-1-propyl-xanthine), at human A2B receptors expressed in HEK-293 cell membranes [[Linden and Jacobson, 1998]]. In order to evaluate selectivity, selected derivatives were subjected to standard binding assays at A1, A2A, and A3 receptors. The initial screening utilized rat brain A1/A2A receptors (with radioligands [^3H]R-PIA and [^3H]CGS-21680), and selected compounds were examined at the recombinant human subtypes (Table 1), using [^3H]CPX ([^3H]8-cyclopentyl-1,3-dipropylxanthine) and ^125I-ZM 241385, ^125I-4-(2-[7-amino-2-[2-furyl][1,2,4]triazolo[2,3-a][1,3,5]triazin-5-yl-amino]ethyl)phenol) [[Palmer et al., 1996]].

The target in another assay is T2, human A3 receptors (Homo sapiens, UniProt P0DMS8).
T2 construct: expressed in transfected cells; host or cells: HEK-293
T2 sequence (P0DMS8 1-318): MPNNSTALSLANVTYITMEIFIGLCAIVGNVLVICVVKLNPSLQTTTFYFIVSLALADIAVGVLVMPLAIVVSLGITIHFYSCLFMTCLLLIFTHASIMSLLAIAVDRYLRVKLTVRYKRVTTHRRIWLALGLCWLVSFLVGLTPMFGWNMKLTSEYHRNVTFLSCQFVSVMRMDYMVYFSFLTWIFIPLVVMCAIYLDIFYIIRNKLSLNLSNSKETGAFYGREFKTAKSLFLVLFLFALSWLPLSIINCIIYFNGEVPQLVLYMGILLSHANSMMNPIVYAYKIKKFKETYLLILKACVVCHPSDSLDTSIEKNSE
Nature of the assay: Binding at recombinant human A3 receptors expressed in HEK-293 cells vs [125I]ABA. As to conditions: recombinant human A3 in HEK-293 cells, read-out: Ki hA3. The method, then:
All nonradioactive compounds were initially dissolved in DMSO and diluted with buffer to the final concentration, where the amount of DMSO never exceeded 2%. Incubations were terminated by rapid filtration over Whatman GF/B filters using a Brandell cell harvester. The tubes were rinsed three times with 3 mL buffer each.
At least six different concentrations of competitor, spanning 3 orders of magnitude adjusted appropriately for the IC50 value of each compound, were used. IC50 values, calculated with the nonlinear regression method implemented in Graph-Pad Prism (San Diego, CA) were converted to apparent Ki values as described by [Linden [1982]]. Hill coefficients of the tested compounds were in the range of 0.8–1.1.
as §1

Take `CCCn1c(=O)c2[nH]c(-c3ccc(OCC(=O)OCC)cc3)nc2n(CCC)c1=O` [Compound 4b]: the values for the Ki on human A2B receptors and on human A3 receptors were 34.5 nM and 48.5 ± 0.8 nM, respectively.
The corresponding values for `CCCn1c(=O)c2[nH]c(-c3ccc(OCC(=O)NNC(C)=O)cc3)nc2n(CCC)c1=O` [Compound 4e, 8-[4-[(Carboxymethyl)oxy]phenyl]-1,3-di-(n-propyl)xanthine N-Acetylhydrazide] are 33.8 nM and 30.9 ± 8.2 nM.
As to `CCCn1c(=O)c2[nH]c(-c3ccc(OCC(=O)NNC(=O)CCC(=O)O)cc3)nc2n(CCC)c1=O` [Compound 9, 8-[4-[(Carboxymethyl)oxy]phenyl]-1,3-di-(n-propyl)xanthine N-[(3-Carboxy)-n-propionyl]hydrazide], the Ki on human A2B receptors was 97.8 nM; on human A3 receptors, 173 ± 27 nM.
The matching figures for `CCCn1c(=O)c2[nH]c(-c3ccc(OCC(=O)NN4C(=O)C(C)=C(C)C4=O)cc3)nc2n(CCC)c1=O` [Compound 14, 8-[4-[(Carboxymethyl)oxy]phenyl]-1,3-di-(n-propyl)xanthine N,N-[(1,2-Dimethyl)maleyl]hydrazide]: 33.8 nM and 670 ± 154 nM.
The matching figures for `CCCn1c(=O)[nH]c(=O)c2[nH]c(-c3ccc(OCC(=O)NN4C(=O)C(C)=C(C)C4=O)cc3)nc21` [Compound 15, 8-[4-[(Carboxymethyl)oxy]phenyl]-1H-3-(n-propyl)xanthine N,N-[(1,2-Dimethyl)maleyl]hydrazide]: 1900 nM and 14200 nM.
The corresponding values for `CCCn1c(=O)c2[nH]c(-c3ccc(OCC(=O)NN4C(=O)c5ccccc5C4=O)cc3)nc2n(CCC)c1=O` [Compound 21, 8-[4-[(Carboxymethyl)oxy]phenyl]-1,3-di-(n-propyl)xanthine N,N-Phthaloylhydrazide] are 46.4 nM and 147 ± 21 nM.

The term Ki denotes the equilibrium dissociation constant of an inhibitor or competing ligand from its target.
